Laboratory results as given in article PMC10743905, “Design, Synthesis, and In Vitro and In Vivo Bioactivity Studies of Hydrazide–Hydrazones of 2,4-Dihydroxybenzoic Acid” (International Journal of Molecular Sciences, 2023).
≈ marks a conversion by molar mass, not a printed value.

Key:
[1] = tested on: Micrococcus luteus ATCC 10240; test: Broth microdilution MIC/MBC; type: cell-based; conditions: for MBC: ATCC10240; for MIC: ATCC10240, read-out: MIC
Description: (§1) In vitro antimicrobial activity assays - Methodology
(§2) The examined compounds 1 - 24 were screened in vitro for antibacterial and antifungal activities using the broth microdilution method according to procedure reported earlier by our research group and European Committee on Antimicrobial Susceptibility Testing (EUCAST) and Clinical and Laboratory Standards Institute (CLSI) guidelines against a panel of reference and clinical or saprophytic strains of microorganisms, in-cluding Gram-positive bacteria, Staphylococcus aureus ATCC 43300 (Methicillin Resistant S. aureus – MRSA), Staphylococcus aureus ATCC 29213 (Methicillin Susceptible S. aureus – MSSA), Staphylococcus epidermidis ATCC 12228, Enterococcus faecalis ATCC 29212, Micro-coccus luteus ATCC 10240, Bacillus subtilis ATCC 6633 and Bacillus cereus ATCC 10876), Gram-negative bacteria (Bordetella bronchiseptica ATCC 4617, Escherichia coli ATCC 25922, Klebsiella pneumoniae ATCC 13883, Proteus mirabilis ATCC 12453, Salmonella typhimurium ATCC 14028 and Pseudomonas aeruginosa ATCC 9027) and fungi belonging to yeasts (Can-dida albicans ATCC 10231, Candida albicans ATCC 2091, Candida parapsilosis ATCC 22019, Candida glabrata ATCC 90030 and Candida krusei ATCC 14243). The microorganisms be-longing to ATCC came from American Type Culture Collection, routinely used for the evaluation of antimicrobials. […]
(§3) Samples containing examined compounds were dissolved in dimethyl sulfoxide (DMSO). […]
(§4) Subsequently, the MIC (Minimal Inhibitory Concentration) of the compounds was ex-amined by the microdilution broth method, using their two-fold dilutions in Mueller- […]
(§5) Hinton broth or (for bacteria) and RPMI 1640 broth with MOPS (for fungi) prepared in 96-well polystyrene plates. Final concentrations of the compounds ranged from 1000 to 0.488 µg/ml. Microbial suspensions were prepared in 0.85% NaCl with an optical density of 0.5 McFarland standard. Next each bacterial or fungal suspension was added per each well containing broth and various concentrations of the examined compounds. After incuba-

[2] = tested on: Proteus mirabilis ATCC 12453; test: Broth microdilution MIC/MBC; type: cell-based; conditions: ATCC12453
Description: as §1, §2, §3, §4, §5

[3] = tested on: Pseudomonas aeruginosa ATCC 9027; test: Broth microdilution MIC/MBC; type: cell-based; conditions: ATCC9027
Description: as §1, §2, §3, §4, §5

[4] = tested on: Salmonella typhimurium ATCC 14028; test: Broth microdilution MIC/MBC; type: cell-based; conditions: Salmonella enterica
Description: as §1, §2, §3, §4, §5

[5] = tested on: Staphylococcus aureus ATCC 29213; test: Broth microdilution MIC/MBC; type: cell-based
Description: as §1, §2, §3, §4, §5

[6] = tested on: Staphylococcus aureus ATCC 43300; test: Broth microdilution MIC/MBC; type: cell-based; conditions: Staphylococcus aureus ATCC 43300 (MRSA)
Description: as §1, §2, §3, §4, §5

[7] = tested on: Staphylococcus epidermidis ATCC 12228; test: Broth microdilution MIC/MBC; type: cell-based; conditions: for MIC: ATCC12228, read-out: MIC
Description: as §1, §2, §3, §4, §5

[8] = tested on: Bacillus subtilis ATCC 6633; test: Broth microdilution MIC/MBC; type: cell-based; conditions: for MIC: ATCC6633, read-out: MIC
Description: Detailed procedures are presented in the Supplementary Materials. […]
as §1
as §2, with “antimicrobials. All the used microbial cultures were first subcultured on nu-trient agar or Sabouraud agar at 35°C for 18-24 h or 30°C for 24-48 h for bacteria and fungi,” for “antimicrobials.”
(§6) The surface of Mueller-Hinton agar (for bacteria) and RPMI 1640 with MOPS (for fungi) were inoculated with the suspensions of bacterial or fungal species. Microbial suspensions were prepared in sterile saline with an optical density of McFarland standard scale 0.5.
(§7) Samples containing examined compounds were dissolved in dimethyl sulfoxide (DMSO).
(§8) Furthermore, bacterial and fungal suspensions were put onto Petri dishes with solid me-dia containing 2 mg/mL of the tested compounds followed incubation at 37°C for 24h and 30°C for 48h for bacteria and fungi, respectively. The inhibition of microbial growth was judged by comparison with a control culture prepared without any sample tested. Ciprof-loxacin, vancomycin, nitrofurantoin, cefuroxime, ampicillin or nystatin (Sigma) were used as a reference antibacterial or antifungal compounds, respectively.
as §4, §5

[9] = tested on: Bacillus cereus ATCC 10876; test: Broth microdilution MIC/MBC; type: cell-based; conditions: for MBC: ATCC10876; for MIC: ATCC10876, read-out: MIC
Description: as §1
as §2, with “antimicrobials. All the used microbial cultures were first subcultured on nu-trient agar or Sabouraud agar at 35°C for 18-24 h or 30°C for 24-48 h for bacteria and fungi,” for “antimicrobials.”
as §6, §7, §8, §4, §5

[10] = tested on: Bordetella bronchiseptica ATCC 4617; test: Broth microdilution MIC/MBC; type: cell-based
Description: as §1
as §2, with “antimicrobials. All the used microbial cultures were first subcultured on nu-trient agar or Sabouraud agar at 35°C for 18-24 h or 30°C for 24-48 h for bacteria and fungi,” for “antimicrobials.”
as §6, §7, §8, §4, §5

[11] = tested on: Enterococcus faecalis ATCC 29212; test: Broth microdilution MIC/MBC; type: cell-based; conditions: for MIC: ATCC29212, read-out: MIC
Description: as §1
as §2, with “antimicrobials. All the used microbial cultures were first subcultured on nu-trient agar or Sabouraud agar at 35°C for 18-24 h or 30°C for 24-48 h for bacteria and fungi,” for “antimicrobials.”
as §6, §7, §8, §4, §5

[12] = tested on: Escherichia coli ATCC 25922; test: Broth microdilution MIC/MBC; type: cell-based; conditions: ATCC25922
Description: as §1
as §2, with “antimicrobials. All the used microbial cultures were first subcultured on nu-trient agar or Sabouraud agar at 35°C for 18-24 h or 30°C for 24-48 h for bacteria and fungi,” for “antimicrobials.”
as §6, §7, §8, §4, §5

[13] = tested on: Klebsiella pneumoniae ATCC 13883; test: Broth microdilution MIC/MBC; type: cell-based; conditions: ATCC13883
Description: as §1
as §2, with “antimicrobials. All the used microbial cultures were first subcultured on nu-trient agar or Sabouraud agar at 35°C for 18-24 h or 30°C for 24-48 h for bacteria and fungi,” for “antimicrobials.”
as §6, §7, §8, §4, §5

[14] = tested on: Candida albicans ATCC 10231; test: Broth microdilution MIC/MFC; type: cell-based; conditions: for MIC: ATCC10231, read-out: MIC
Description: as §1
as §2, with “antimicrobials. All the used microbial cultures were first subcultured on nu-trient agar or Sabouraud agar at 35°C for 18-24 h or 30°C for 24-48 h for bacteria and fungi,” for “antimicrobials.”
as §6, §7, §8, §4, §5

[15] = tested on: Candida albicans ATCC 2091; test: Broth microdilution MIC/MFC; type: cell-based; conditions: ATCC2091, read-out: MIC
Description: as §1
as §2, with “antimicrobials. All the used microbial cultures were first subcultured on nu-trient agar or Sabouraud agar at 35°C for 18-24 h or 30°C for 24-48 h for bacteria and fungi,” for “antimicrobials.”
as §6, §7, §8, §4, §5

[16] = tested on: Candida glabrata ATCC 90030; test: Broth microdilution MIC/MFC; type: cell-based; conditions: Nakaseomyces glabratus, ATCC90030, read-out: MIC
Description: as §1
as §2, with “antimicrobials. All the used microbial cultures were first subcultured on nu-trient agar or Sabouraud agar at 35°C for 18-24 h or 30°C for 24-48 h for bacteria and fungi,” for “antimicrobials.”
as §6, §7, §8, §4, §5

[17] = tested on: Candida krusei ATCC 14243; test: Broth microdilution MIC/MFC; type: cell-based; conditions: Pichia kudriavzevii, ATCC14243, read-out: MIC
Description: as §1
as §2, with “antimicrobials. All the used microbial cultures were first subcultured on nu-trient agar or Sabouraud agar at 35°C for 18-24 h or 30°C for 24-48 h for bacteria and fungi,” for “antimicrobials.”
as §6, §7, §8, §4, §5

[18] = tested on: Candida parapsilosis ATCC 22019; test: Broth microdilution MIC/MFC; type: cell-based; conditions: Lodderomyces parapsilosis, ATCC22019, read-out: MIC
Description: as §1
as §2, with “antimicrobials. All the used microbial cultures were first subcultured on nu-trient agar or Sabouraud agar at 35°C for 18-24 h or 30°C for 24-48 h for bacteria and fungi,” for “antimicrobials.”
as §6, §7, §8, §4, §5

Gram-negative bacteria = test: Broth microdilution, summary over the Gram-negative panel; type: cell-based
Description: as §1
as §2, with “antimicrobials. All the used microbial cultures were first subcultured on nu-trient agar or Sabouraud agar at 35°C for 18-24 h or 30°C for 24-48 h for bacteria and fungi,” for “antimicrobials.”
as §6, §7, §8, §4, §5

[19] = tested on: reference Gram-positive bacteria; test: Broth microdilution, summary over the Gram-positive panel; type: cell-based; conditions: read-out: MIC
Description: as §1, §2, §3, §4, §5

Question: What does the source list for `CCOc1cc(/C=N/NC(=O)c2ccc(O)cc2O)ccc1OC` [Compound 14, N-[(3-ethoxy-4-methoxyphenyl)methylidene]-2,4-dihydroxybenzohydrazide]?
Answer: MBC/MIC [1]: > 8; MBC [1]: > 1000 mg/L; MIC [1]: 125 mg/L (≈ 378 µM); MIC [2]: > 1000 mg/L; MIC [3]: > 1000 mg/L; MIC [4]: > 1000 mg/L; MIC ([5]; ATCC29213): > 1000 mg/L; MIC [6]: > 1000 mg/L; MIC [7]: > 1000 mg/L; MIC [8]: > 1000 mg/L; MBC/MIC [9]: > 2; MBC [9]: > 1000 mg/L; MIC [9]: 500 mg/L (≈ 1510 µM); MBC/MIC [10]: 1; MBC ([10]; ATCC4617): 1000 mg/L (≈ 3030 µM); MIC ([10]; ATCC4617): 1000 mg/L (≈ 3030 µM); MIC [11]: > 1000 mg/L; MIC [12]: > 1000 mg/L; MIC [13]: > 1000 mg/L; MFC/MIC [14]: > 2; MFC ([14]; ATCC10231, read-out: MFC): > 1000 mg/L; MIC [14]: 500 mg/L (≈ 1510 µM); MIC [15]: > 1000 mg/L; MIC [16]: > 1000 mg/L; MIC [17]: > 1000 mg/L; MIC [18]: > 1000 mg/L; MBC (Gram-negative bacteria): > 1000 mg/L; MIC (Gram-negative bacteria): 500 to 1000 mg/L (≈ 1510 to 3030 µM); melting point: 230 °C

Question: With `O=C(N/N=C/c1ccc(O)c(Br)c1)c1ccc(O)cc1O` [Compound 11, N-[(3-bromo-4-hydroxyphenyl)methylidene]-2,4-dihydroxybenzohydrazide] as the molecule, how does the MBC/MIC [1] read?
Answer: > 8

Question: What about the MBC [1] of the same molecule?
Answer: > 1000 mg/L

Question: And the MIC [1]?
Answer: 125 mg/L (≈ 356 µM)

Question: What about the MIC [2] of the same molecule?
Answer: > 1000 mg/L

Question: What about the MIC [3] of the same molecule?
Answer: > 1000 mg/L

Question: And the MIC [4]?
Answer: > 1000 mg/L

Question: What about the MBC/MIC [5] of the same molecule?
Answer: > 4

Question: What about the MBC ([5]; ATCC29213) of the same molecule?
Answer: > 1000 mg/L

Question: What about the MIC ([5]; ATCC29213) of the same molecule?
Answer: 250 mg/L (≈ 712 µM)

Question: And the MBC [6]?
Answer: 1000 mg/L (≈ 2850 µM)

Question: And the MBC/MIC [6]?
Answer: 2

Question: What about the MIC [6] of the same molecule?
Answer: 500 mg/L (≈ 1420 µM)

Question: What about the MBC/MIC [7] of the same molecule?
Answer: 2

Question: What about the MBC ([7]; ATCC12228) of the same molecule?
Answer: 1000 mg/L (≈ 2850 µM)

Question: What about the MIC [7] of the same molecule?
Answer: 500 mg/L (≈ 1420 µM)

Question: And the MBC/MIC [8]?
Answer: > 2

Question: And the MBC ([8]; ATCC6633)?
Answer: > 1000 mg/L

Question: And the MIC [8]?
Answer: 500 mg/L (≈ 1420 µM)

Question: What about the MBC/MIC [9] of the same molecule?
Answer: > 4

Question: And the MBC [9]?
Answer: > 1000 mg/L

Question: What about the MIC [9] of the same molecule?
Answer: 250 mg/L (≈ 712 µM)

Question: And the MIC ([10]; ATCC4617)?
Answer: > 1000 mg/L

Question: And the MBC/MIC [11]?
Answer: > 2

Question: What about the MBC ([11]; ATCC29212, read-out: MBC) of the same molecule?
Answer: > 1000 mg/L

Question: And the MIC [11]?
Answer: 500 mg/L (≈ 1420 µM)

Question: And the MIC [12]?
Answer: > 1000 mg/L

Question: And the MIC [13]?
Answer: > 1000 mg/L

Question: What about the MIC [14] of the same molecule?
Answer: > 1000 mg/L

Question: What about the MIC [15] of the same molecule?
Answer: > 1000 mg/L

Question: And the MIC [16]?
Answer: > 1000 mg/L

Question: And the MIC [17]?
Answer: > 1000 mg/L

Question: And the MIC [18]?
Answer: > 1000 mg/L

Question: And the MIC [19]?
Answer: 15.6 to 1000 mg/L (≈ 44.5 to 2850 µM)

Question: And the melting point?
Answer: 232 °C
